In article PMC4104029, “Mechanism of Action of Compound-13: An α1-Selective Small Molecule Activator of AMPK” (Chemistry & Biology, 2014):
Like-named read-outs stand apart in the source and are kept apart here.

Tests used:
[1] = tested on: primary mouse hepatocytes (WT); assay: Lipid synthesis, [1-14C]acetate incorporation; type: cell-based; conditions: for IC50: Mus musculus, Hepatocyte
Procedure: Figure 5 C13 Inhibits Lipid Synthesis and Fatty Acid Esterification in Mouse Hepatocytes in an AMPK-Dependent Manner (A) Mouse hepatocytes were treated with the indicated concentrations of C13 and labeled with [1-^14C]acetate for 3 hr. A769662 (100 μM) and AICAR (0.5 mM) were included as positive controls. Rates of fatty acid and sterol synthesis were estimated by incorporation into saponifiable and nonsaponifiable lipids. Results are expressed as the mean acetate incorporated in micromoles per gram-hour ± SD and are representative of two independent experiments. (B) Mouse hepatocytes were treated with the indicated compounds for 30 min and labeled with media containing 0.5 mM palmitic acid (1 mCi⋅mmol^−1 [9,10-^3H]palmitic acid) for an additional 60 min. Incorporation into triglyceride was determined as described in Experimental Procedures and results are expressed as palmitate incorporated in micromoles per gram-hour ± SD and are representative of three independent experiments. (C and D) Mouse hepatocytes from WT or AMPK-null (AMPKα1^−/− -α2^−/−) mice were incubated with the indicated concentrations of C13 and labeled with [1-^14C]acetate for 3 hr. Rates of fatty acid and sterol synthesis were estimated from incorporation into saponifiable (C) and nonsaponifiable (D) lipids. Results are expressed as percentage WT vehicle and represent the mean ± SD for three independent experiments. (E) Hepatocytes were treated with the indicated concentrations of C13 for 3 hr, and lysates were blotted with the indicated antibodies.
Lipid synthesis was determined by labeling adherent cultures of primary hepatocytes with [1-^14C]acetate. After overnight culture, hepatocytes (5 × 10^5) were washed with warm PBS and allowed to rest for 3 hr in fresh M199. Cells were treated with vehicle (0.1% DMSO) or the indicated compounds and labeled with 1 mCi⋅mmol^−1 [1-^14C]acetate for 3 hr. Cells were washed with ice-cold PBS, gently scraped into 0.5 ml PBS and saponified in methanolic KOH at 80°C for 1 hr. Nonsaponifiable and saponifiable lipids were extracted with petroleum ether before and after acidification with HCl. Lipid fractions were washed with 5% HAc, dried using N2, and dissolved in scintillant for the determination of [^14C] incorporation. Lipogenesis in hepatocytes from AMPKβ1/β2-KO mice was determined in media containing [^3H]acetate (0.2 mCi⋅mmol^−1). After 4 hr labeling, total lipids were extracted using the method of [Bligh and Dyer (1959)], and incorporated [^3H] was determined by scintillation counting. The results are expressed as micromoles acetate incorporated per gram-hour.

[2] = tested on: adenylate kinase; assay: Adenylate kinase assay; type: biochemical; conditions: concentrations up to 100 μM; data not shown
Procedure: Additional enzyme assays. Glycogen phosphorylase (EC 2.4.1.1) was assayed in the physiological direction in reactions containing 20 mM BES pH 6.8, 20 mM phosphate, 1 mM NADP+, 0.5 mM MgCl2, 0.1 % glycogen, 4 µM glucose-1,6-bisphosphate, 0.5 mM DTT, 0.025 % BSA, 0.6 U/ml phosphoglucomutase and 3 U/ml glucose-6-phosphate dehydrogenase (G6PDH). FBP1 (EC 3.1.3.11) was assayed in reactions containing 50 mM TES pH 7.4, 0.1 […]
mM 2-mercaptoethanol, 25 µM fructose-1,6-bisphosphate, 0.8 U/ml phosphoglucoisomerase and 0.5 U/ml G6PDH. PFK1 (EC 2.7.1.11) was assayed in reactions containing 50 mM TES pH 7.4, 2 mM MgCl2, 0.05 % BSA, 2 mM 2-mercaptoethanol, 0.5 mM fructose-6-phosphate, 1 mM ATP, 0.2 mM NADH, 0.5 U/ml aldolase, 15 U/ml triosephosphate isomerase and 2 U/ml α-glycerophosphate dehydrogenase. […] All assays were performed in a final volume of 250 µl and were monitored by changes in fluorescence (FBP1 - λex 340nm, λem 450nm) or A340. […] Liberated phosphate was determined using malachite green reagent. […] The formation of pyrophosphate (PPi) was monitored by reduction of PPi-molybdate complexes using 2-mercaptoethanol and Fiske-Subbarow reducer (Kuang, et al., 2007). […]
Tricistronic expression vectors were constructed using a strategy inspired by Neumann et al (Neumann, et al., 2003). […] The open reading frame of AMPKα1 and AMPKα2 was inserted after the 6×His tag as a Bamh1-Not1 fragment. […]

With `CC(C)C(=O)OCOP(=O)(OCOC(=O)C(C)C)c1ccc(C2=NOC(=O)C2)o1` [Compound C13] the “reduction of lipid synthesis” value ([1]; 1 μM, WT cells) was “about 40%”, the IC50 ([1]; [14C]acetate, 3 hr, read-out: IC50, inhibition of lipid synthesis, nonsaponifiable lipids) was 1.5 µM and the IC50 ([1]; [14C]acetate, 3 hr, read-out: IC50, inhibition of lipid synthesis, saponifiable lipids) was 1.7 µM. For the same molecule, the “concentration of maximal effect on lipid synthesis” value ([1]; [14C]acetate, 3 hr) was 30 µM and the “potency relative to A769662” value ([1]; similar inhibition with 3 μM C13 and 100 μM A769662) was “≈ 30 fold”.

With `O=P(O)(O)c1ccc(-c2cc(O)on2)o1` [Compound C2, 5-(5-hydroxyl-isoxazol-3-yl)-furan-2-phosphonic acid] the “effect on enzyme activity” value [2] was “None of these enzymes were affected”.
